# Where two headings read alike, the source gives them in different places.
# Target: T1, PSII reaction centers of thylakoid extract (Spinacia oleracea, UniProt P69560)
# T1 construct: both lyophilized thylakoid extracts were resuspended in: Tris-HCl 50 mM pH 7.5; sorbitol 330 mM; from tissue; host or cells: plant thylakoid membrane extract (lyophilized, rehydrated)
# Assay: Inhibition of Fv/Fm (photosynthetic efficiency) of thylakoid extract by atrazine
# Assay type: biochemical, Spinacia oleracea L.
# Protocol: Each re-suspended extract was dark-incubated for 15 min with the appropriate atrazine concentration for 15 minutes.
# Absorbed light was measured with a FMS1 Hansatech Instrument (Schreiber et al., 1986; lab based modulated fluorescence); under excitation light beam at 470 nm. In dark adapted condition, the following fluorescence parameters can be obtained or calculated: • Fo: minimal fluorescence when PSII reaction centers are in the fully oxidized state. It is obtained at the beginning of fluorescence measurement when only the modulating beam is illuminated. • Fm: obtained with an intense saturating pulse (2 000 μmol photons m^2/s) allowing maxi mum PSII fluorescence emission. • Fv: variable fluorescence is obtained by the difference between Fm and Fo and corresponds to maximum capacity for photochemical energy quenching.
# Fv/Fm: this ratio is proportional to quantum efficiency of PSII reaction centers (Butker 1977, 1978) and represents a correlation between the chlorophyll fluorescence and the photochemical reactions (for instance oxygen evolution).
# Any molecule affecting the photosystems will modify either Fo or Fm which modification necessarily disrupts (increases or decreases) the photosynthetic efficiency. […]
smiles,measurement,setting,value
CCNc1nc(Cl)nc(NC(C)C)n1 [atrazine],IC50,"IC50 (atrazine concentration inhibiting 50% of the efficiency parameter), extract after 7 days at 20° C., 5 μg/mL chlorophyll, 15 min dark incubation",0.116 µM
same,IC50,"several batches of thylakoid extract, 95% confidence, FIG. 4, read-out: IC50 of an accepted lot (within 2σ of the mean IC50)",0.0765 to 0.218 µM
